# Data from patent US3941842A, “P,P'-Disubstituted α-trichloromethylbenzylanilines” (priority 1972, dated 1976).
# “Also recorded” adds a separate entry of the source.
# Key:
# insects = conditions: background; cited from earlier work
# [1] = test system: multifunction oxidase (MFO) enzymes; conditions: background; cited from earlier work
# [2] = background; cited from earlier work
# [3] = background; cited from earlier work; remark: listed apart in the source
# [4] = Model ecosystem: distribution, ecological magnification and Biodegradability Index; conditions: for ecological magnification (E.M.): ratio of parent material in fish to concentration in water; for Concentration of ethoxyaniline equivalents in Culex (mosquito) / Concentration of ethoxyaniline equivalents in Gambusia (fish) / Concentration of ethoxyaniline equivalents in H2O / Concentration of ethoxyaniline equivalents in Oedogonium (algae) / Concentration of ethoxyaniline equivalents in Physa (snail): 5.0 mg 3H-ethoxyaniline to Sorghum
# Text: After the amounts of the various metabolites have been calculated and a determination is made as to which of the metabolites are to be designated as "polar" and which are to be designated as "non-polar", a Biodegradability Index (amount of polar metabolites/amount of nonpolar metabolites) may be calculated. Remembering that nonpolar compounds, such as DDT are readily soluble in the fatty tissues, but are not readily soluble in water based solutions, and that the cell fluid is essentially a water based solution, the lower the Biodegradability Index, the lower the amount of biodegradability of the compound. The higher the amount of polarity, the greater the likelihood that the polar compound will dissolve in water, a very polar compound, and be eliminated from the cell.
# The environmental fate of any new pesticide is a factor of paramount importance in determining how and where it might be used. The behavior of ^3 H-α-trichloromethyl-p-ethoxybenzyl-p-ethoxyaniline has been studied by the model ecosystem technique following application of 5.0 mg. of labeled compound to Sorghum plants. A summary of
# metabolites from the organisms in the model ecosystem after 33 days were
# identified by cochromatography with standards of known constitution, by
# appropriate chromogenic reagents, and by high-resolution mass
# spectrometry. The data of Table IV indicate the O-dealkylation of
# Food Chem. 1 (1972). Ethoxychlor was found in the snail to 58.6 ppm and in the fish to 0.92 ppm, along with its ethylene and the mono- and bis-phenols formed by O-dealkylation. The ecological magnification (E.M.) of ethoxychlor, defined as the ratio of the parent material in the fish to the concentration in the water, was 1500-fold as compared with an E.M. of only 0.7-fold for the ethoxyaniline.
# Comparing the Biodegradability Indices (B.I.=total recovered polar metabolites/total recovered nonpolar metabolites) the values are 0.44 for ethoxychlor and 2.0 for ethoxyaniline.
# Musca domestica Snaidm = assay: Topical LD50 to adult female SNAIDM houseflies
# Salt-marsh caterpillar = assay: Metabolism of 3H-ethoxyaniline by salt-marsh caterpillar larvae; conditions: for Salt-marsh caterpillar, percent 3H in Excreta / Salt-marsh caterpillar, percent 3H in Homogenate: 24 hr after feeding 0.5 mg 3H-ethoxyaniline (compound III)
# Protocol: (§1) The compounds of the present invention were tested for insecticidal activity by standard methods, and compared with the insecticidal activities of DDT and symmetrical analogs of DDT, such methoxychlor. Toxicological methods for the determination of the topical LD50 values to adult female SNAIDM and RSP houseflies, Musca domestica L. and to Phormia regina, and LC50 values to Culex pipiens quinquefasciatus Say, and Anopheles albimanus Weid mosquitoes were described by Metcalf el al., 44 Bull. World Health Org. 363 (1971). The methods for evaluation of metabolism by mouse liver homogenate and by female RSP housefly and salt-marsh caterpillar larvae Estigmene acrea Drury, were described by Kapoor et al., 18 J. Agr. Food Chem. 1145 (1970). The techniques for model eocsystem evluation were described by Metcalf et al., 5 J. Environ. Sci. Tech. 709 (1971).
# (§2) The biodegradability of an insecticide may be measured by administering measured doses of a tritium labeled test insecticide to a subject. Some time later the subject is sacrificed, liquefied, and a sample of the liquefied insect is placed on a thin layer chromotagraphy (tlc) plate. The plate is developed in a suitable solvent and Rf values of the various compounds contained in the sample are measured against known Rf values of previously synthesized theoretical metabolic breakdown products. The amount of each metabolite present may thus be measured by measuring the ^3 H at each separately resolved spot on the tlc plate. A permanent record may be made by exposing film to the plate to form a ratioautograph.
# Musca domestica Rsp = assay: Topical LD50 to adult female RSP houseflies
# [5] = Metabolism of 3H-labeled compound by mouse liver homogenate; conditions: for Mouse liver, percent 3H in homogenate: 0.01 μM 3H-labeled compound III, 1 hr incubation, NADPH and nicotinamide
# Protocol: as §1, §2
# Female housefly = assay: Metabolism of 3H-ethoxyaniline by female RSP housefly; conditions: for Female housefly, percent 3H in Excreta / Female housefly, percent 3H in Homogenate: 24 hr after topical 1.0 μg 3H-ethoxyaniline (compound III)
# Protocol: as §1, §2
# [6] = test system: Anopheles albimanus larvae; assay: LC50 to Anopheles albimanus larvae; format: in vivo, Anopheles albimanus Weid
# Text: (§3) World Health Org. 363 (1971). […] Food Chem. 1145 (1970). […] Sci. Tech. 709 (1971). The results are detailed in Table II. ##SPC1##
# Culex fatigans larvae = assay: LC50 to Culex fatigans larvae; format: in vivo, Culex pipiens quinquefasciatus Say
# Text: as §3
# Phormia regina = assay: whole plant or invertebrate; conditions: topical
# [7] = synergistic ratio: LD50 alone/LD50 synergized with piperonyl butoxide
# [8] = female RSP housefly, topical 1.0 μg, 24 hr
smiles,measurement,setting,value
"COc1ccc(C(c2ccc(OC)cc2)C(Cl)(Cl)Cl)cc1 [methoxychlor, 1,1,1-trichloro-,2,2-bis(p-methoxyphenyl)ethane]",insecticidal activity (in words),insects,considerably less insecticidal activity than DDT towards other species of insects
same,susceptibility to MFO enzymes (in words),[1],readily attacked by MFO enzymes
same,accumulation in animal tissues (in words),[2],not generally accumulated in animal tissues
"Clc1ccc(C(c2ccc(Cl)cc2)C(Cl)(Cl)Cl)cc1 [DDT, 1,1,1 trichloro-2,2-bis(p-chlorophenyl)ethane]",insecticidal activity (in words),insects,effective contact or residual insecticide
same,biodegradability (in words),[1],not biodegradable
same,susceptibility to MFO enzymes (in words),[1],do not function on DDT and its metabolic derivatives DDE and DDD
same,lipid solubility (in words),[3],high lipid solubility
same,water solubility (in words),[3],very low water solubility
same,accumulation in animal tissues (in words),[2],accumulation in the fatty or lipid tissues of animals
same,ecological magnification (E.M.),[4],"84,000 fold"
same,Biodegradability Index (B.I.),[4]; total recovered polar/total recovered nonpolar metabolites,0.015
"CSc1ccc(C(c2ccc(SC)cc2)C(Cl)(Cl)Cl)cc1 [methiochlor, 1,1,1-trichloro-2,2-bis-(p-methiophenyl)ethane]",insecticidal activity (in words),insects,considerably less insecticidal activity than DDT towards other species of insects
same,susceptibility to MFO enzymes (in words),[1],readily attacked by MFO enzymes
"CCOc1ccc(NC(c2ccc(OCC)cc2)C(Cl)(Cl)Cl)cc1 (stereo not drawn) [Compound III, α-trichloromethyl-p-ethoxybenzyl-p-ethoxyaniline]",LD50,"Musca domestica Snaidm; Musca domestica, topical, read-out: Topical LD50, Musca domestica Snaidm, Alone",15.5 mg/kg
same,"Topical LD50, Musca domestica Snaidm, with pb","Musca domestica Snaidm; SNAIDM strain, synergized with piperonyl butoxide, topical",4.2 μg per g
same,"SR, Musca domestica Snaidm",Musca domestica Snaidm; [7],3.7
same,3H recovered in excreta,"Salt-marsh caterpillar; 4th instar larvae, 0.5 mg fed, 24 hr",75%
same,"Salt-marsh caterpillar, percent 3H in Excreta",Salt-marsh caterpillar,2.5%
same,"Salt-marsh caterpillar, percent 3H in Homogenate",Salt-marsh caterpillar,9.0%
same,LD50,"Musca domestica Rsp; Musca domestica, topical, read-out: Topical LD50, Musca domestica Rsp, Alone",20.5 mg/kg
same,"Topical LD50, Musca domestica Rsp, with pb","Musca domestica Rsp; RSP strain, synergized with piperonyl butoxide, topical",6.5 μg per g
same,"SR, Musca domestica Rsp",Musca domestica Rsp; [7],3.2
same,"Mouse liver, percent 3H in homogenate",[5],30%
same,metabolic pathway (in words),"[5]; mouse liver homogenate, 1 hr",attacked by O-dealkylation to produce either one or both of the monophenolic derivatives
same,"Female housefly, percent 3H in Excreta",Female housefly,22.9%
same,"Female housefly, percent 3H in Homogenate",Female housefly,37.6%
same,3H recovered as body homogenate,Female housefly; [8],65%
same,3H recovered as body wash,Female housefly; [8],19.2%
same,3H recovered as excreta,Female housefly; [8],10%
same,recovery of the 3H,"Female housefly; female RSP housefly, topical 1.0 μg, 24 hr, total",94.2%
same,metabolic pathway in insect and mammal (in words),"Female housefly; insects (housefly, caterpillar) and mouse liver homogenate",metabolized in both the insect and the mammal by O-dealkylation to form both mono- and bis- phenols
same,LC50 Anopheles albimanus larvae,[6],0.28 ppm
same,LC50 Culex fatigans larvae,Culex fatigans larvae,0.19 ppm
same,LD50,"Phormia regina; Phormia regina, read-out: Topical LD50, Phormia regina, Alone",33.7 mg/kg
same,"Topical LD50, Phormia regina, with pb",Phormia regina; synergized with piperonyl butoxide,9.7 μg per g
same,Concentration of ethoxyaniline equivalents in Culex (mosquito),[4]; 33 days,0.28 ppm
same,Concentration of ethoxyaniline equivalents in Gambusia (fish),[4]; 33 days,0.04 ppm
same,Concentration of ethoxyaniline equivalents in H2O,"[4]; H2O, 33 days",0.055 ppm
same,Concentration of ethoxyaniline equivalents in Oedogonium (algae),[4]; 33 days,1.09 ppm
same,Concentration of ethoxyaniline equivalents in Physa (snail),[4]; 33 days,22.68 ppm
same,biodegradability (in words),[4]; model ecosystem comparison,substantially biodegradable; also recorded: by far superior in both E.M. and B.I
same,ecological magnification (E.M.),[4],0.7 fold
same,Total 3H in Culex (mosquito) (ethoxyaniline equivalents),"[4]; total 3H, Culex, 33 days",1.0 ppm
same,Total 3H in Gambusia (fish) (ethoxyaniline equivalents),"[4]; total 3H, Gambusia, 33 days",0.30 ppm
same,Total 3H in H2O (ethoxyaniline equivalents),"[4]; total 3H, H2O, 33 days",0.363 ppm
same,Total 3H in Oedogonium (algae) (ethoxyaniline equivalents),"[4]; total 3H, Oedogonium, 33 days",3.03 ppm
same,Total 3H in Physa (snail) (ethoxyaniline equivalents),"[4]; total 3H, Physa, 33 days",36.0 ppm
"CCOc1ccc(N)cc1 [C2 H5 OC6 H4 NH2, p-ethoxyaniline]","Salt-marsh caterpillar, percent 3H in Excreta",Salt-marsh caterpillar,8.4%
same,"Salt-marsh caterpillar, percent 3H in Homogenate",Salt-marsh caterpillar,15.0%
same,"Mouse liver, percent 3H in homogenate",[5],13.7%
same,"Female housefly, percent 3H in Excreta",Female housefly,9.1%
same,"Female housefly, percent 3H in Homogenate",Female housefly,8.3%
same,Concentration of ethoxyaniline equivalents in Culex (mosquito),[4]; 33 days,0.01 ppm
same,Concentration of ethoxyaniline equivalents in Gambusia (fish),[4]; 33 days,0.03 ppm
same,Concentration of ethoxyaniline equivalents in H2O,"[4]; H2O, 33 days",0.053 ppm
same,Concentration of ethoxyaniline equivalents in Oedogonium (algae),[4]; 33 days,0.42 ppm
same,Concentration of ethoxyaniline equivalents in Physa (snail),[4]; 33 days,2.556 ppm
